Laboratory results: ChEMBL document CHEMBL5727118, “Benzoic acid derivatives of bile acid as FXR/TGR5 agonists and methods of use thereof” (2019)

Molecular target: T1, Bile acid receptor (Homo sapiens, UniProt Q96RI1)
T1 sequence (Q96RI1 whole entry): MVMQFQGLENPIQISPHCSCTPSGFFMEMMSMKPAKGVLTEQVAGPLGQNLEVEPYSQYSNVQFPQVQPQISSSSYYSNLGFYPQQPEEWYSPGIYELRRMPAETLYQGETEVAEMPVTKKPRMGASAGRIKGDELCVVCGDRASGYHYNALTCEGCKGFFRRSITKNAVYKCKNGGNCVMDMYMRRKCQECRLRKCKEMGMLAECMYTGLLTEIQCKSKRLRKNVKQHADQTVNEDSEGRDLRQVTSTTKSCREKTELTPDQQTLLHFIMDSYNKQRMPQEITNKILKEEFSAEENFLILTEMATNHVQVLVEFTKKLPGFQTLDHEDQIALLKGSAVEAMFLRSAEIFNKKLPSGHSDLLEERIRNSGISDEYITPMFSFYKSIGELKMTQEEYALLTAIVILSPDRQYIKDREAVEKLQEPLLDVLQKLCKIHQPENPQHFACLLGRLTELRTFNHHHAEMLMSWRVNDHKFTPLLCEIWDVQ
Assay: FXR Reporter Assay kit purchased from Indigo Bioscience (Catalogue number: IB00601) to determine the potency and efficacy of compound developed by Enanta that can induce FXR activation. The principle application of this reporter assay system is to quantify functional activity of human FXR. The assay utilizes non-human mammalian cells, CHO (Chinese hamster ovary) cells engineered to express human NR1H4 protein (referred to as FXR). Reporter cells also incorporate the cDNA encoding beetle luciferase which catalyzes the substrates and yields photon emission. Luminescence intensity of the reaction is quantified using a plate-reading luminometer, Envision. Reporter Cells include the luciferase reporter gene functionally linked to an FXR responsive promoter. Thus, quantifying changes in luciferase expression in the treated reporter cells provides a sensitive surrogate measure of the changes in FXR activity. […] The assay is according to the manufacturer's instructions. In brief, the assay was performed in white, 96 well plates using final volume of 100 ul containing cells with different doses of compounds. Retrieve Reporter Cells from −80° C. storage. Perform a rapid thaw of the frozen cells by transferring a 10 ml volume of 37° C. cell recovery medium into the tube of frozen cells. Recap the tube of Reporter Cells and immediately place it in a 37° C. water bath for 5-10 minutes. […]
Assay type: cell-based

Structure (SMILES): CC[C@H]1[C@@H](O)[C@@H]2[C@H](CC[C@]3(C)[C@@H]([C@H](C)C/C=C/c4ccc(F)cc4C(=O)O)CC[C@@H]23)[C@@]2(C)CC[C@@H](O)C[C@@H]12
- EC50: < 100 nM
